Experimental data published in patent US6362212B1, “Oxime derivative and bactericide containing the same as active ingredient” (Shionogi & Company, Ltd., priority 1994, dated 2002).

Key:
Assay type in all cases: in vivo
Sphaerotheca fuliginea = test: Controlling effect on Sphaerotheca fuliginea by foliage application (pot experiment); details: foliage spray on cucumber (cv. TSUKUBASHIROIBO) first leaves, infected area after 10 days in greenhouse at 20° C.
Procedure: The following Test Examples illustrate the effects of the fungicide of the present invention. (I. Controlling effects on various plant diseases by foliage application (pot experiment)) A test compound was dissolved in a small amount of N,N-dimethylformamide, and the solution was diluted to a given concentration with distilled water containing a spreader. Thus, a liquid sample to be tested was prepared. The liquid sample was sprayed to test plants, and 24 hours thereafter, pathogens were inoculated by the method described below. […] Seeds of cucumber ([…]) were sown in plastic cups (each 9 cm in diameter), followed by cultivation for 2 to 3 weeks. The liquid test sample in the form of a solution or suspension was sprayed on the surface of their first leaves. The pathogen was inoculated to the leaves by spraying a conidia suspension of Sphaerotheca fuliginea which had been cultured on the cucumber leaves. After the inoculation, the plants were kept in a greenhouse at 20° C. for 10 days. Then, the infected area on the leaf was observed, and the percent control was calculated.

[1] = system: Erysiphe graminis f. sp. tritici; test: Controlling effect on Erysiphe graminis f. sp. tritici by foliage application (pot experiment); details: foliage spray on wheat (cv. NORIN No. 61) seedlings, infected area after 10 days in greenhouse at 20° C.
Procedure: The following Test Examples illustrate the effects of the fungicide of the present invention. (I. Controlling effects on various plant diseases by foliage application (pot experiment)) A test compound was dissolved in a small amount of N,N-dimethylformamide, and the solution was diluted to a given concentration with distilled water containing a spreader. Thus, a liquid sample to be tested was prepared. The liquid sample was sprayed to test plants, and 24 hours thereafter, pathogens were inoculated by the method described below. […] The seeds of wheat (cv.: NORIN No. 61) were sown in plastic cups (each 9 cm in diameter), followed by cultivation for 2 to 3 weeks. The test compound in the form of a solution or suspension was sprayed to the seedlings, and conidia of Erysiphe graminis f. sp. tritici cultured on wheat leaves were dropped on the test plants to inoculate the plants with the pathogen. After the inoculation, the plants were kept in a greenhouse at 20° C. for 10 days. The infected area on the leaf was observed, and the percent control was calculated.

[2] = system: Pseudoperonospora cubensis; test: Controlling effect on Pseudoperonospora cubensis by foliage application (pot experiment); details: foliage spray on cucumber (var. TSUKUBASHIROIBO) first leaves, lesion area after 10 days in moist chamber at 20° C.
Procedure: The following Test Examples illustrate the effects of the fungicide of the present invention. (I. Controlling effects on various plant diseases by foliage application (pot experiment)) A test compound was dissolved in a small amount of N,N-dimethylformamide, and the solution was diluted to a given concentration with distilled water containing a spreader. Thus, a liquid sample to be tested was prepared. The liquid sample was sprayed to test plants, and 24 hours thereafter, pathogens were inoculated by the method described below. […] The seeds of cucumber (var.: […]) were sown in plastic cups (each 9 cm in diameter), followed by cultivation for 2 to 3 weeks. The test compound in the form of a solution or suspension was sprayed to the surface of their first leaves, and a zoosporangia suspension of Pseudoperonospora cubensis cultured on cucumber leaves was dropped on the above leaf surfaces to inoculate the test plants with the pathogen. After the inoculation, the plants were kept in a moist chamber at 20° C. for 10 days. Then, the area of the lesions around the inoculum were observed and the percent control was calculated.

Pyricularia oryzae = details: foliage spray on rice seedlings (cv. […]), number of lesions six days after the inoculation

Compound | Controlling effect on Sphaerotheca fuliginea by foliage application at 500 ppm (percent control) (Sphaerotheca fuliginea) | Controlling effect on ErYsiphe graminis f. sp. tritici by foliage application at 500 ppm (percent control) [1] | Controlling effect on Pseudoperonospora cubensis by foliage application at 500 ppm (percent control) [2] | Controlling effect on PYricularia orYzae by foliage application at 500 ppm (percent control) (Pyricularia oryzae)
CON=C(c1cc(C)on1)c1ccccc1COc1ccccc1C (mixture of isomers) [compound 412] | 100 percent control | 70 percent control | 100 percent control | 
CON=C(c1ccccc1COc1cccc(Cl)c1)c1nccn1C (single isomer, unassigned) [106B] | 97 percent control |  | 100 percent control | 
CON=C(c1ccccc1COc1ccc(C)cc1)c1nccn1C (single isomer, unassigned) [114A] | 100 percent control | 90 percent control |  | 90 percent control
CON=C(c1ccccc1COc1cccc(C(C)C)c1)c1nccn1C (single isomer, unassigned) [146A] | 97 percent control |  | 100 percent control | 97 percent control
CON=C(c1ccno1)c1ccccc1COc1ccc(Cl)cc1C (single isomer, unassigned) [541A] | 100 percent control | 90 percent control | 100 percent control | 
CON=C(c1cc(C)no1)c1ccccc1COc1cccc(Cl)c1 (single isomer, unassigned) [606A] | 100 percent control | 70 percent control | 95 percent control | 
CON=C(c1cc(C)no1)c1ccccc1COc1cccc(Cl)c1 (single isomer, unassigned) [606B] | 100 percent control |  | 100 percent control | 
CON=C(c1cc(C)no1)c1ccccc1COc1ccc(Cl)cc1 (single isomer, unassigned) [607B] | 97 percent control | 70 percent control | 97 percent control | 
CON=C(c1cc(C)no1)c1ccccc1COc1ccccc1C (single isomer, unassigned) [612B] | 100 percent control | 100 percent control | 100 percent control | 
CON=C(c1cc(C)no1)c1ccccc1COc1cccc(C)c1 (single isomer, unassigned) [613B] | 100 percent control | 70 percent control | 100 percent control | 
CON=C(c1cc(C)no1)c1ccccc1COc1ncc(C(F)(F)F)cc1Cl (single isomer, unassigned) [690B, 2-(3-chloro-5-trifluoromethyl-2-pyridyloxymethyl)phenyl 3-methylisoxazol-5-yl ketone O-methyloxime] |  |  | 100 percent control | 
COC(=O)C(C)N(C(=O)Cc1ccccc1)c1c(C)cccc1C (stereo not shown) [Benalaxyl, reference compound] |  |  | 97 percent control | 
CON=C(c1ncon1)c1ccccc1COc1ccccc1C [Compound No. 812] | 100 percent control | 100 percent control |  | 70 percent control
CON=C(c1noc(C)n1)c1ccccc1COc1ccccc1C [Compound No. 912] | 100 percent control | 90 percent control |  | 70 percent control
CON=C(c1cc(C)no1)c1ccccc1CON=C(C)c1ccc(Cl)cc1 [Compound No. 2507] | 100 percent control |  | 100 percent control | 
CON=C(c1ccccc1COc1ccccc1)n1cnc(C)c1 [compound 221] | 97 percent control | 70 percent control |  | 70 percent control
CON=C(c1ccccc1COc1cccc(Cl)c1)n1cnc(C)c1 [compound 226] | 70 percent control | 70 percent control |  | 70 percent control
CON=C(c1ccccc1COc1ccccc1)n1cncn1 [compound 261] | 97 percent control | 97 percent control |  | 70 percent control
CON=C(c1ccccc1COc1cccc(Cl)c1)n1cncn1 [compound 266] | 97 percent control | 97 percent control |  | 90 percent control
CON=C(c1nnco1)c1ccccc1COc1ccccc1Cl [compound 705] | 97 percent control |  | 100 percent control | 70 percent control
CON=C(c1ncon1)c1ccccc1COc1ccc(-c2ccccc2)cc1 [compound 844] | 97 percent control |  | 100 percent control | 
CON=C(c1noc(C)n1)c1ccccc1COc1ccccc1Cl [compound 905] | 90 percent control |  | 99 percent control | 
CON=C(C1=NCCO1)c1ccccc1COc1ccccc1C [compound 1310] | 90 percent control | 90 percent control |  | 70 percent control
CON=C(c1nnn(C)n1)c1ccccc1COc1ccc(C)cc1 [compound 2014] | 100 percent control |  | 100 percent control | 
CON=C(c1nnn(C)n1)c1ccccc1COc1ccc(-c2ccccc2)cc1 [compound 2044] | 97 percent control |  | 100 percent control | 
